Measurements taken from ChEMBL document CHEMBL3045223, “Synthesis, nematicidal and antimicrobial properties of Bis-[4-methoxy-3-[3-(4-fluorophenyl)-6-(4-methylphenyl)-2(aryl)-tetrahydro-2H-pyrazolo[3,4-d]thiazol-5-yl]phenyl]methanes” (2009).
In brackets after ≈: the same amount, converted by molar mass. Activity calls are given as the source filed them. The calls are words filed in the database; no cut-off is given here.

Tests used:
Format in all cases: functional
[1] = tested on: Caenorhabditis elegans; assay: Nematicidal activity against Caenorhabditis elegans assessed as immobility; conditions: read-out: LD50 (the source's name)
[2] = tested on: Bacillus subtilis; assay: Antibacterial activity against Bacillus subtilis MTCC 441 assessed as inhibition zones at 300 ug/disk at 37 degC for 24 hr; conditions: MTCC 441, 24 h, read-out: IZ
[3] = tested on: Staphylococcus aureus; assay: Antibacterial activity against Staphylococcus aureus MTCC 96 assessed as inhibition zones at 300 ug/disc at 37 degC for 24 hr; conditions: MTCC 96, 24 h, read-out: IZ
[4] = tested on: Candida albicans; assay: Antifungal activity against Candida albicans ATCC 10231 assessed as growth inhibition at 37 degC for 48 hr; conditions: ATCC 10231, 48 h
[5] = tested on: Trichophyton mentagrophytes; assay: Antifungal activity against Trichophyton mentagrophytes IFO 40996 assessed as growth inhibition at 300 ug/disc at 37 degC for 48 hr; conditions: IFO 40996, 48 h, read-out: IZ
[6] = tested on: Lysinibacillus sphaericus; assay: Antibacterial activity against Lysinibacillus sphaericus MTCC 11 assessed as inhibition zones at 300 ug/disk at 37 degC for 24 hr; conditions: MTCC 11, 24 h, read-out: IZ
[7] = tested on: Candida albicans; assay: Antifungal activity against Candida albicans ATCC 10231 assessed as growth inhibition at 300 ug/disk at 37 degC for 48 hr; conditions: ATCC 10231, 48 h, read-out: IZ
[8] = tested on: Aspergillus fumigatus; assay: Antifungal activity against Aspergillus fumigatus HIC 6094 assessed as growth inhibition at 37 degC for 48 hr
[9] = tested on: Klebsiella aerogenes; assay: Antibacterial activity against Enterobacter aerogenes MTCC 39 assessed as growth arrest at 37 degC for 24 hr; conditions: MTCC 39, 24 h
[10] = tested on: Pseudomonas aeruginosa; assay: Antibacterial activity against Pseudomonas aeruginosa MTCC 741 assessed as growth arrest at 37 degC for 24 hr; conditions: MTCC 741, 24 h
[11] = tested on: Bacillus subtilis; assay: Antibacterial activity against Bacillus subtilis MTCC 441 assessed as growth arrest at 37 degC for 24 hr; conditions: MTCC 441, 24 h
[12] = tested on: Pseudomonas aeruginosa; assay: Antibacterial activity against Pseudomonas aeruginosa MTCC 741 assessed as inhibition zones at 300 ug/disk at 37 degC for 24 hr; conditions: MTCC 741, 24 h, read-out: IZ
[13] = tested on: Klebsiella aerogenes; assay: Antibacterial activity against Enterobacter aerogenes MTCC 39 assessed as inhibition zones at 300 ug/disk at 37 degC for 24 hr; conditions: MTCC 39, 24 h, read-out: IZ
[14] = tested on: Chromobacterium violaceum; assay: Antibacterial activity against Chromobacterium violaceum MTCC 2656 assessed as inhibition zones at 300 ug/disk at 37 degC for 24 hr; conditions: MTCC 2656, 24 h, read-out: IZ
[15] = tested on: Trichophyton rubrum; assay: Antifungal activity against Trichophyton rubrum IFO 9185 assessed as growth inhibition at 37 degC for 48 hr
[16] = tested on: Aspergillus fumigatus; assay: Antifungal activity against Aspergillus fumigatus HIC 6094 assessed as growth inhibition at 300 ug/disc at 37 degC for 48 hr
[17] = tested on: Trichophyton rubrum; assay: Antifungal activity against Trichophyton rubrum IFO 9185 assessed as growth inhibition at 300 ug/disk at 37 degC for 48 hr; conditions: IFO 9185, 48 h, read-out: IZ
[18] = tested on: Lysinibacillus sphaericus; assay: Antibacterial activity against Lysinibacillus sphaericus MTCC 11 assessed as growth arrest at 37 degC for 24 hr; conditions: MTCC 11, 24 h
[19] = tested on: Ditylenchus myceliophagus; assay: Nematicidal activity against Ditylenchus myceliophagus assessed as immobility; conditions: read-out: LD50 (the source's name)
[20] = tested on: Trichophyton mentagrophytes; assay: Antifungal activity against Trichophyton mentagrophytes IFO 40996 assessed as growth inhibition at 37 degC for 48 hr
[21] = tested on: Chromobacterium violaceum; assay: Antibacterial activity against Chromobacterium violaceum MTCC 2656 assessed as growth arrest at 37 degC for 24 hr; conditions: MTCC 2656, 24 h
[22] = tested on: Staphylococcus aureus; assay: Antibacterial activity against Staphylococcus aureus MTCC 96 assessed as growth arrest at 37 degC for 24 hr; conditions: MTCC 96, 24 h

SMILES	LC50 [1] [µg/mL]	zone of inhibition at 300 µg/disc [2] [mm]	zone of inhibition at 300 µg/disc [3] [mm]	MBC [4] [µg/mL]	MIC [4] [µg/mL]	zone of inhibition at 300 µg/disc [5] [mm]	zone of inhibition at 300 µg/disc [6] [mm]	zone of inhibition at 300 µg/disc [7] [mm]	MBC [9] [µg/mL]	MIC [9] [µg/mL]	MBC [10] [µg/mL]	MIC [10] [µg/mL]	MBC [11] [µg/mL]	MIC [11] [µg/mL]	zone of inhibition at 300 µg/disc [12] [mm]	zone of inhibition at 300 µg/disc [13] [mm]	zone of inhibition at 300 µg/disc [14] [mm]	MBC [15]	MIC [15]	LC50 [19] [µg/mL]	other results
COc1ccc(Cc2ccc(OC)c(C3SC4C(=NN(C(C)C)C4c4ccc(F)cc4)N3c3ccc(Cl)cc3)c2)cc1C1SC2C(=NN(C(C)C)C2c2ccc(F)cc2)N1c1ccc(Cl)cc1 (stereo unspecified)	670 (≈ 686 µM)	12	13	25 (≈ 25.6 µM)	12.5 (≈ 12.8 µM)	12	11	10	50 (≈ 51.2 µM)	25 (≈ 25.6 µM)	25 (≈ 25.6 µM)	25 (≈ 25.6 µM)	25 (≈ 25.6 µM)	12.5 (≈ 12.8 µM)	13	20	16	inactive	inactive	520 (≈ 533 µM)	MBC ([8]; HIC 6094, 48 h): 25 µg/mL (≈ 25.6 µM); MIC ([8]; HIC 6094, 48 h): 25 µg/mL (≈ 25.6 µM); inhibition zone (IZ) [16]: inactive; zone of inhibition at 300 µg/disc [17]: 11 mm; MBC [18]: 50 µg/mL (≈ 51.2 µM); MIC [18]: 25 µg/mL (≈ 25.6 µM); MBC ([20]; IFO 40996, 48 h): 50 µg/mL (≈ 51.2 µM); MIC ([20]; IFO 40996, 48 h): 25 µg/mL (≈ 25.6 µM); MBC [21]: 25 µg/mL (≈ 25.6 µM); MIC [21]: 12.5 µg/mL (≈ 12.8 µM); MBC [22]: 25 µg/mL (≈ 25.6 µM); MIC [22]: 12.5 µg/mL (≈ 12.8 µM)
COc1ccc(Cc2ccc(OC)c(C3SC4C(=NN(Cc5ccccc5)C4c4ccc(F)cc4)N3c3ccc([N+](=O)[O-])cc3)c2)cc1C1SC2C(=NN(Cc3ccccc3)C2c2ccc(F)cc2)N1c1ccc([N+](=O)[O-])cc1 (stereo unspecified)	190 (≈ 174 µM)	15	19	25 (≈ 22.9 µM)	12.5 (≈ 11.4 µM)	13	21	19	25 (≈ 22.9 µM)	12.5 (≈ 11.4 µM)	50 (≈ 45.7 µM)	12.5 (≈ 11.4 µM)	12.5 (≈ 11.4 µM)	6.25 (≈ 5.72 µM)	10	19	13	inactive	inactive	190 (≈ 174 µM)	MBC [8]: inactive; MIC [8]: inactive; zone of inhibition at 300 µg/disc ([16]; HIC 6094, 48 h, read-out: IZ): 16 mm; zone of inhibition at 300 µg/disc [17]: 11 mm; MBC [18]: 50 µg/mL (≈ 45.7 µM); MIC [18]: 12.5 µg/mL (≈ 11.4 µM); MBC [20]: inactive; MIC [20]: inactive; MBC [21]: 12.5 µg/mL (≈ 11.4 µM); MIC [21]: 6.25 µg/mL (≈ 5.72 µM); MBC [22]: 50 µg/mL (≈ 45.7 µM); MIC [22]: 12.5 µg/mL (≈ 11.4 µM)
CNC(=O)O/N=C(\SC)C(=O)N(C)C [OXAMYL]	180 (≈ 821 µM)																			150 (≈ 684 µM)	
